Results reported in patent US20050020482A1, “Methods for modulating gap junctions” (priority 2001, published 2005).

What was measured:
[1] = test system: gap junction function in IMR32; format: cell-based
Method: The classical scrape loading test was used to monitor the function of gap junction channels. Briefly, a cut is performed with a fine needle in sub-confluent cell cultures (refer reverse phases micrograph 5B). The culture is then covered with a film of fluorescent dye Lucifer yellow which is not cell permeant. The dye however penetrates the wounded cells along the scrape. From these loaded cells the dye can only be transferred to neighbor cells through the gap junction channels. The number of cell rows that receive the dye after a given time (3 min) provides an estimation of the gap junction function. Primary antibodies specific to PKC isoforms alpha beta I and beta II were introduced individually or in combination (as shown) by endocytosis using a kit from Molecular Probe following the supplier instructions. Controls for the introduction of the specific antibodies were performed by fixing and permeabilizing the cells then staining them with a secondary antibody conjugated to Texas red (Johnson labs).
All documents referred to are incorporated herein by reference.

[2] = test system: IMR32 neuroblastoma cells; test: Growth of IMR32 neuroblastoma cells in vitro (population size, Hoechst fluorometry); format: cell-based; parameters: population size, percent of matching controls: concentration or dose not given beside the values; settings: for population size, percent of matching controls: 24 replica
Method: Legend: IMR32 neuroblastoma cells were seeded in 96 well plates at a density of 1000 cells per well. Treatments were as follows: Control cells are untreated and growing in a MEM-based proliferation medium. […] A2+RA treatment consisted of medium A2 supplemented with all trans retinoic acid (RA) 1 uM on day 2; A1+RA consist of RA supplementation 1 uM in the absence of the cAMP analog. The population size (24 replica per treatment) was determined by a procedure using Hoechst as a reagent and cytofluor (BioRad) fluorometer for measurement. The results are expressed as a percent of matching controls.

Row | Compound | cell death [1] | gap junction function [1] | population size, percent of matching controls ([2]; day 1) [%] | population size, percent of matching controls ([2]; day 2) [%] | population size, percent of matching controls ([2]; day 3) [%] | population size, percent of matching controls ([2]; day 4) [%] | population size, percent of matching controls ([2]; day 5) [%] | population size, percent of matching controls ([2]; day 6) [%] | effect on growth (in words) ([2]; legend of Table 1)
1 | Oc1ccc(-c2nc(-c3ccncc3)c(-c3ccc(F)cc3)[nH]2)cc1 [SB202190] | died of apoptosis | Gap junction function resuming | – | – | – | – | – | – | –
2 | CC1=C(/C=C/C(C)=C/C=C/C(C)=C/C(=O)O)C(C)(C)CCC1 [all trans retinoic acid (RA), all trans retinoic acid] | – | – | 84 | 87 | 90 | 63 | 70 | 68 | not very efficient in affecting growth
